Test [1] concerns Vascular smooth muscle cells. Briefly: GR or MR blockade and 11-beta-HSD-2 inhibition in vascular cells. The note with it: physiologically relevant levels of aldosterone. The class given is cell-based. The method, then: Vascular smooth muscle cells were incubated with varying combinations of a MR or GR-antagonist and physiologically relevant levels of cortisol or aldosterone; importantly, adosterone and cortisol were also used in combination to mimic specific interactions between the ligand-receptor and co-factor recruitment as observed in vitro and in vivo.

The conditions of test [2]: heart failure patients, normal or low aldosterone, added to ACE inhibitor, loop diuretic and digoxin; cited from earlier work.
Another test has as its system monocytes. In words: Monocyte/macrophage differentiation and functional changes (RT-PCR or microarray analysis). The test is classed as cell-based, Rodent and human. The note with it: for cell proliferation and maturation of monocytes: 10^-7 M cortisol, 10^-9 M aldosteron. The method, then: Rodent and human monocytes were studied during their differentiation process towards macrophages in the presence or absence of different, physiologically relevant levels of cortisol or corticosterone, as well as aldosterone, respectively.
Glucocorticoid receptor (GR) and mineralocorticoid receptor occupancy was modulated with either eplerenone or ZK91587 or canrenoate (as MR-antagonists) or RU486 (GR-antagonist). […] (dehydrocorticosterone in rodent cells) was added as a substrate for 11-beta-HSD1. Metyrapone was used to block 11-beta-HSD1 reductase activity. Inhibitors were added with 10^-7 M cortisol, 10^-9 M aldosteron concentration, HSD inhibitors were added in 10^-6 M concentration.
Monocytes were first stimulated with either lipopolysaccharide (LPS) or Tumor-necrosis-factor-alpha (TNF-apha), interferone-gamma (IFN-gamma), interleukin-13 (IL-13) or interleukin-4 (IL-4) before differentiation into macrophages in the presence of above different agonist/antagonist combinations. In order to evaluate the linkage between inflammation and metabolic disease, mature macrophages were also stimulated with fatty acids via the Toll-like-receptor 4.

Test [3] addresses T1, mineralocorticoid receptor (Homo sapiens, UniProt P08235).
T1 sequence (P08235 1-984): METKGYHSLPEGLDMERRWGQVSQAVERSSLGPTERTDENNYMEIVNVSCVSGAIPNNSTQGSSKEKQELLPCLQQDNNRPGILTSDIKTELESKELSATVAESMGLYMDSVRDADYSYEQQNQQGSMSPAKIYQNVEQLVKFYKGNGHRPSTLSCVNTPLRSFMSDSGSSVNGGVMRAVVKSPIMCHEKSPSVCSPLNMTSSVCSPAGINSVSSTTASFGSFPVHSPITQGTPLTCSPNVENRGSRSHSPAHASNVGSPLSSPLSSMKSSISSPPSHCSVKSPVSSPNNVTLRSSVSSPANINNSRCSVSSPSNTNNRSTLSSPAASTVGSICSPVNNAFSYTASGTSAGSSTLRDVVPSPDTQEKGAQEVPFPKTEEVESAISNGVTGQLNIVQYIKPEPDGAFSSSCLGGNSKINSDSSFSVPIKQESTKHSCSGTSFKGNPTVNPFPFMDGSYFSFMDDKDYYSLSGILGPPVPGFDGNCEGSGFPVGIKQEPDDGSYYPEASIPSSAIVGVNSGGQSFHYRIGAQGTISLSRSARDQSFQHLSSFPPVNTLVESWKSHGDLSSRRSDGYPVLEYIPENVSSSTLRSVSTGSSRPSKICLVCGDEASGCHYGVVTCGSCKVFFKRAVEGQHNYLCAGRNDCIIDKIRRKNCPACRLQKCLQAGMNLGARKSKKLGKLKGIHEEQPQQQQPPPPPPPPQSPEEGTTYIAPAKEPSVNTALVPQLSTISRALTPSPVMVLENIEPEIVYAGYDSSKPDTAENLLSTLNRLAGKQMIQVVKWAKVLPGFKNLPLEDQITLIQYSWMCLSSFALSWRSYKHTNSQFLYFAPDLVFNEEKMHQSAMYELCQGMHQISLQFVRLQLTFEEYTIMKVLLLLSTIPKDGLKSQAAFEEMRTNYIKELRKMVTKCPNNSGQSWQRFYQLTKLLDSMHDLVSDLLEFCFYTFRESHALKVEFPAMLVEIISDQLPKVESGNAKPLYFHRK
Particulars: relative to aldosterone; cited from earlier work.

Structures are written as SMILES.

`COC(=O)[C@@H]1CC2=CC(=O)CC[C@]2(C)[C@@]23O[C@@H]2C[C@@]2(C)[C@@H](CC[C@@]24CCC(=O)O4)[C@H]13` [eplerenone]: in test [1], the “vascular endothelial growth factor (VEGF) and ICAM-1 induction” value is on record as “reversed this effect”. Further, in test [2], the “decrease of post-myocardial infarction morbidity and mortality rate” value was about 15%.
Consider `C[C@]12CCC(=O)C=C1CC[C@@H]1[C@@H]2[C@@H](O)C[C@@]2(C)[C@H]1CC[C@]2(O)C(=O)CO` [cortisol], for which, in the test with monocytes, the “cell proliferation and maturation of monocytes” value was “induced cell proliferation and maturation of monocytes”. Besides, the “affinity to the mineralocorticoid receptor, higher than aldosterone” value in test [3] is listed as 10-30 fold.
Consider `C[C@]12CCC(=O)C=C1CC[C@@H]1[C@@H]2[C@@H](O)C[C@]2(C=O)[C@@H](C(=O)CO)CC[C@@H]12` [aldosterone], for which, in the test on monocytes, the “cell proliferation and maturation of monocytes” value was “induced cell proliferation and maturation of monocytes”. Further, in the test on monocytes (induction with aldosterone), the “macrophage phenotype (NfkappaB, RANK-ligand, interleukin-6, ROS, plasminogen activator inhibitor-1)” value was “more proinflammatory macrophage phenotype”. In addition, the “vascular endothelial growth factor (VEGF) and ICAM-1 induction” value in test [1] is listed as “induced vascular endothelial growth factor (VEGF) as well as ICAM-1”.
On to `C[C@]12CCC(=O)C=C1CC[C@@H]1[C@@H]2C(=O)C[C@@]2(C)[C@H]1CC[C@]2(O)C(=O)CO` [cortisone], for which the “cell proliferation and maturation of monocytes” value with monocytes was “induced cell proliferation and maturation of monocytes”.
Turning to `CC(C)(C(=O)c1cccnc1)c1cccnc1` [metyrapone], the “effect on macrophage differentiation and function” value with monocytes (HSD inhibitors added in 10^-6 M concentration) is listed as “the effects of aldosterone at the high affinitity MR were enhanced or were able to override glucocorticoid mediated effects”.
Regarding `CC(=O)S[C@@H]1CC2=CC(=O)CC[C@]2(C)[C@H]2CC[C@@]3(C)[C@@H](CC[C@@]34CCC(=O)O4)[C@H]12` [spironolactone], in test [2], the “decrease of post-myocardial infarction morbidity and mortality rate” value is given as “about 30%”.

The values above are taken from EP2243494A1, “Pharmaceutical composition, comprising a steroid-dehydrogenase-reductase inhibitor, and a mineralocorticoid receptor antagonist” (OntoChem GmbH, priority 2009, dated 2010).
